Experimental data reported in PubChem BioAssay (NCI).
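Each compound was tested at five concentrations against cells in 96-well plates for 48 hours. At the GI50, growth is halved. TGI: concentration producing complete growth inhibition.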

Tests used:
Assay in all cases: NCI tumour cell line growth inhibition, 48 h
KM12 colon = tested on: KM12 colon
MCF7 breast = tested on: MCF7 breast
SK-OV-3 ovarian = tested on: SK-OV-3 ovarian
SK-MEL-5 melanoma = tested on: SK-MEL-5 melanoma
HT29 colon = tested on: HT29 colon
OVCAR-3 ovarian = tested on: OVCAR-3 ovarian
NCI-H460 lung = tested on: NCI-H460 lung
HCC-2998 colon = tested on: HCC-2998 colon
786-0 renal = tested on: 786-0 renal

SMILES: CCCCCCCCCCCCNC(C)=O
- TGI (KM12 colon): 35.7 µM
- TGI (MCF7 breast): 32.4 µM
- TGI (SK-OV-3 ovarian): 29.1 µM
- TGI (SK-MEL-5 melanoma): 30.4 µM
- TGI (HT29 colon): 33.6 µM
- TGI (OVCAR-3 ovarian): 40.1 µM
- TGI (NCI-H460 lung): 32.7 µM
- TGI (HCC-2998 colon): 37.5 µM
- TGI (786-0 renal): 32.5 µM

SMILES: Nc1ccc2c(c1)C(=O)C(=O)c1c-2nc2ccccn12
- GI50 (KM12 colon): 2.13 µM
- TGI (KM12 colon): 6.8 µM
- GI50 (MCF7 breast): 1.06 µM
- TGI (MCF7 breast): 3.07 µM
- GI50 (SK-OV-3 ovarian): 2.64 µM
- TGI (SK-OV-3 ovarian): 7.62 µM
- GI50 (SK-MEL-5 melanoma): 0.178 µM
- TGI (SK-MEL-5 melanoma): 0.329 µM
- GI50 (HT29 colon): 3.97 µM
- TGI (HT29 colon): 34.9 µM
- GI50 (OVCAR-3 ovarian): 1.26 µM
- TGI (OVCAR-3 ovarian): 3.07 µM
- GI50 (NCI-H460 lung): 0.561 µM
- TGI (NCI-H460 lung): 3.12 µM
- GI50 (HCC-2998 colon): 2.22 µM
- TGI (HCC-2998 colon): 4.09 µM
- GI50 (786-0 renal): 2.24 µM
- TGI (786-0 renal): 4.86 µM

SMILES: CCCCC[C@H](O)/C=C/[C@@H]1[C@@H](C/C=C\CCCC(=O)O)[C@@H](O)C[C@H]1O
- GI50 (KM12 colon): > 100 µM
- TGI (KM12 colon): > 100 µM
- GI50 (MCF7 breast): > 100 µM
- TGI (MCF7 breast): > 100 µM
- GI50 (SK-OV-3 ovarian): > 100 µM
- TGI (SK-OV-3 ovarian): > 100 µM
- GI50 (SK-MEL-5 melanoma): > 100 µM
- TGI (SK-MEL-5 melanoma): > 100 µM
- GI50 (HT29 colon): > 100 µM
- TGI (HT29 colon): > 100 µM
- GI50 (OVCAR-3 ovarian): > 100 µM
- TGI (OVCAR-3 ovarian): > 100 µM
- GI50 (NCI-H460 lung): > 100 µM
- TGI (NCI-H460 lung): > 100 µM
- GI50 (HCC-2998 colon): > 100 µM
- TGI (HCC-2998 colon): > 100 µM
- GI50 (786-0 renal): > 100 µM
- TGI (786-0 renal): > 100 µM

SMILES: COc1cc2c(cc1O)CC[C@@H]1[C@@H]2CC[C@]2(C)[C@@H](NCCN(C)C)CC[C@@H]12
- GI50 (MCF7 breast): 0.127 µM
- TGI (MCF7 breast): 0.514 µM
- GI50 (SK-OV-3 ovarian): 0.194 µM
- TGI (SK-OV-3 ovarian): 0.667 µM
- GI50 (SK-MEL-5 melanoma): 0.0694 µM
- TGI (SK-MEL-5 melanoma): 0.166 µM
- GI50 (HT29 colon): 0.101 µM
- TGI (HT29 colon): 0.393 µM
- GI50 (OVCAR-3 ovarian): 0.123 µM
- TGI (OVCAR-3 ovarian): 0.475 µM
- GI50 (NCI-H460 lung): 0.324 µM
- TGI (NCI-H460 lung): 0.823 µM
- GI50 (HCC-2998 colon): 0.22 µM
- TGI (HCC-2998 colon): 0.716 µM
- GI50 (786-0 renal): 0.383 µM
- TGI (786-0 renal): 0.831 µM

SMILES: OC1[C@H]([C@H]2CCCC[C@@H]2O)CCC[C@@H]1[C@@H]1CCCC[C@H]1O (stereo partly drawn)
- TGI (KM12 colon): > 100 µM
- TGI (SK-OV-3 ovarian): > 100 µM
- TGI (SK-MEL-5 melanoma): > 100 µM
- TGI (HT29 colon): > 100 µM
- TGI (OVCAR-3 ovarian): > 100 µM
- TGI (NCI-H460 lung): > 100 µM
- TGI (HCC-2998 colon): > 100 µM
- TGI (786-0 renal): > 100 µM

SMILES: Cc1c2cc[n+](C)cc2c(C)c2c1sc1ccccc12
- TGI (KM12 colon): 2.97 µM
- TGI (MCF7 breast): 41.8 µM
- TGI (SK-OV-3 ovarian): 14.3 µM
- TGI (SK-MEL-5 melanoma): 4.56 µM
- TGI (HT29 colon): 25.4 µM
- TGI (OVCAR-3 ovarian): 5.43 µM
- TGI (NCI-H460 lung): 6.02 µM
- TGI (HCC-2998 colon): 6.28 µM
- TGI (786-0 renal): 2.9 µM

SMILES: Cc1ccc(S(=O)(=O)OC2CCN(C)CC2)cc1
- TGI (MCF7 breast): > 100 µM
- TGI (SK-OV-3 ovarian): > 100 µM
- TGI (SK-MEL-5 melanoma): 44.6 µM
- TGI (HT29 colon): > 100 µM
- TGI (OVCAR-3 ovarian): > 100 µM
- TGI (NCI-H460 lung): > 100 µM
- TGI (786-0 renal): > 100 µM

SMILES: CCNC(=O)[C@@H]1CCCN2C(=O)CC[C@H](NC(=O)[C@H](Cc3ccc(OP(=O)(O)O)cc3)NC(C)=O)C(=O)N12
- GI50 (KM12 colon): > 25 µM
- TGI (KM12 colon): > 25 µM
- GI50 (MCF7 breast): > 25 µM
- TGI (MCF7 breast): > 25 µM
- GI50 (SK-OV-3 ovarian): > 25 µM
- TGI (SK-OV-3 ovarian): > 25 µM
- GI50 (SK-MEL-5 melanoma): > 25 µM
- TGI (SK-MEL-5 melanoma): > 25 µM
- GI50 (HT29 colon): > 25 µM
- TGI (HT29 colon): > 25 µM
- GI50 (OVCAR-3 ovarian): > 25 µM
- TGI (OVCAR-3 ovarian): > 25 µM
- GI50 (NCI-H460 lung): > 25 µM
- TGI (NCI-H460 lung): > 25 µM
- GI50 (HCC-2998 colon): > 25 µM
- TGI (HCC-2998 colon): > 25 µM
- GI50 (786-0 renal): > 25 µM
- TGI (786-0 renal): > 25 µM
